Experimental data published in ChEMBL document CHEMBL1770138, “Synthesis and SAR of pyrimidine-based, non-nucleotide P2Y14 receptor antagonists” (Bioorg Med Chem Lett, 2011).

Legend:
[1] = Drug uptake in plasma of C57B6 mouse after 24 hrs; format: ADME; settings: read-out: Drug uptake
in vivo [2] = settings: C57B6, mouse, po, 50 mg/kg
in vivo [3] = settings: C57B6, mouse, po, 50 mg/kg; remark: listed apart in the source
in vivo [4] = settings: C57B6, mouse, iv, 5 mg/kg
in vivo [5] = settings: C57B6, mouse, iv, 5 mg/kg; remark: listed apart in the source
in vivo [6] = settings: C57B6, mouse

concentration at 24 h [1]: 400 nM
bioavailability (in vivo [2]): 134%
Cmax (in vivo [3]): 2400 nM
clearance (in vivo [4]): 48 mL/min/kg
Vd (in vivo [5]): 19 L/kg
half-life (in vivo [6]): 11 h
Structure (SMILES): CCc1cccc(NC(=O)N2CCc3nc(-c4ccc5c(c4)OCO5)nc(-c4ccccc4C)c3C2)c1
